The test system of one experiment is Tomato (breed: Momotaro). In words: Relief effects of high temperature injury on tomato (Test Example 3). The following applies: spray, 40° C. daylight / 30° C. dark, 4 days, ascorbyl palmitate 600 ppm, thiophanate-methyl 467 ppm, boscalid 333 ppm, cyflufenamid 17 ppm + triflumizole 75 ppm.
The subject of experiment [1] is Cucumber (breed: Sagamihanjiro). The experiment is described as follows: Relief effects of salt injury on cucumber (Test Example 8). The conditions noted are these: spray, 0.1% sodium chloride irrigation from 3 days, above ground raw weight at 20 days, ascorbyl palmitate 600 ppm, imidacloprid 50 ppm, pymetrozine 100 ppm, cyenopyrafen 150 ppm, pyraclostrobin 50 ppm, normal irrigation = 100.
Experimental: Cucumber (breed: Sagamihanjiro, 2 replications) hydroponically grown up to the 1.5 leaf stage in a greenhouse was prepared.
A water dispersible granule of 30% ascorbyl palmitate and a commercially available product containing the substance (B) described in Table 14 were diluted with tap water into a concentration described in Table 14, and the diluted solution was sprayed over the nursery plats in a sufficient amount. After air dried, they were cultivated in a greenhouse with normal irrigation. Irrigation was changed to 0.1% aqueous sodium chloride solution at the elapsed time of 3 days after the spraying, and cultivated. The raw weight of an above ground part was measured at the elapsed time of 20 days after the spraying. From this, injury relief percentages were computed by the following formula.

With `O=C(Nc1ccccc1-c1ccc(Cl)cc1)c1cccnc1Cl` [Boscalid], the “relief percents of injury (%)” value in the experiment with Tomato (breed: Momotaro) is 40%.

Regarding `O=[N+]([O-])NC1=NCCN1Cc1ccc(Cl)nc1` [Imidacloprid], in experiment [1], the “relief percents of injury (%)” value is on record as 33%. Same read-out and setting: the value for `CC1=NNC(=O)N(/N=C/c2cccnc2)C1` [Pymetrozine] was 53%; that for `COC(=O)N(OC)c1ccccc1COc1ccn(-c2ccc(Cl)cc2)n1` [Pyraclostrobin] was 77%. `COC(=O)NC(=S)Nc1ccccc1NC(=S)NC(=O)OC` [Thiophanate-methyl]: in the experiment with Tomato (breed: Momotaro), the “relief percents of injury (%)” value was 40%.

In the case of `CCCCCCCCCCCCCCCC(=O)OC[C@H](O)[C@H]1OC(=O)C(O)=C1O` [ascorbyl palmitate], the “relief percents of injury (%)” value in experiment [1] is reported as 53%; in the experiment on Tomato (breed: Momotaro) it was 40%. As for `Cc1nn(C)c(/C(OC(=O)C(C)(C)C)=C(\C#N)c2ccc(C(C)(C)C)cc2)c1C` [cyenopyrafen], the “relief percents of injury (%)” value in experiment [1] was 51%.

(Values after US9345243B2, “Chemicals composition for reducing stress on plant” (Nippon Soda Co., Ltd., priority 2012, dated 2016).)
